pIC50: −log10 of the molar value.
Test system: K98450-129-R-PDC multicell spheroids, viability
Assay: Anticancer human tumor K98450-129-R-PDC patient-derived colon adenocarcinoma cell line growth inhibition [PI3K]
Details: for pIC50: curve of first compound; for viability, T/C: stronger effect = lower value
Procedure, shortened: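 Tumor cells were combined with HUVEC and MSCs into spheroids, then dosed with PI3K-inhibitor combinations over half-log ranges capped near clinical Cmax or 10 microM.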

[1] = second compound 0.00316 µM, first compound 0.0316 µM
[2] = second compound 0.00316 µM, first compound 0.1 µM
[3] = second compound 0.01 µM, first compound 0.0316 µM
[4] = second compound 0.01 µM, first compound 0.1 µM
[5] = second compound 0.0316 µM, first compound 0.0316 µM
[6] = second compound 0.0316 µM, first compound 0.1 µM
[7] = second compound 0.1 µM, first compound 0.0316 µM
[8] = second compound 0.1 µM, first compound 0.1 µM
[9] = second compound 0.316 µM, first compound 0.0316 µM
[10] = second compound 0.316 µM, first compound 0.1 µM
[11] = second compound 1 µM, first compound 0.0316 µM
[12] = second compound 1 µM, first compound 0.1 µM
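Further: spheroids exposed to agents for seven days before read-out.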

In the case of CC(=O)c1c(C)c2cnc(Nc3ccc(N4CCNCC4)cn3)nc2n(C2CCCC2)c1=O + COc1c(OCCCN2CCOCC2)ccc2c3n(c(=NC(=O)c4cnc(N)nc4)nc12)CCN3, the pIC50 (second compound 0.00316 µM) was < 7.00, the pIC50 (second compound 0.01 µM) was < 7.00 and the pIC50 (second compound 0.0316 µM) was < 7.00. For the same compound, the pIC50 (second compound 0.1 µM) was < 7.00, the pIC50 (second compound 0.316 µM) was < 7.00 and the pIC50 (second compound 1 µM) was 7.34. It also gave a viability, T/C (second compound 0.00316 µM, first compound 0.000316 µM) of 114%, a viability, T/C (second compound 0.00316 µM, first compound 0.001 µM) of 119% and a viability, T/C (second compound 0.00316 µM, first compound 0.00316 µM) of 93.7%. It also gave a viability, T/C (second compound 0.00316 µM, first compound 0.01 µM) of 90.5%, a viability, T/C [1] of 101% and a viability, T/C [2] of 95.8%. It also gave a viability, T/C (second compound 0.01 µM, first compound 0.000316 µM) of 109%, a viability, T/C (second compound 0.01 µM, first compound 0.001 µM) of 101% and a viability, T/C (second compound 0.01 µM, first compound 0.00316 µM) of 97.3%. It also gave a viability, T/C (second compound 0.01 µM, first compound 0.01 µM) of 91.1%, a viability, T/C [3] of 98.1% and a viability, T/C [4] of 92.4%. It also gave a viability, T/C (second compound 0.0316 µM, first compound 0.000316 µM) of 85.7%, a viability, T/C (second compound 0.0316 µM, first compound 0.001 µM) of 96.7% and a viability, T/C (second compound 0.0316 µM, first compound 0.00316 µM) of 97.3%. The viability, T/C (second compound 0.0316 µM, first compound 0.01 µM) was 87.6%, the viability, T/C [5] was 86.5% and the viability, T/C [6] was 70.4%. The viability, T/C (second compound 0.1 µM, first compound 0.000316 µM) was 78.9%, the viability, T/C (second compound 0.1 µM, first compound 0.001 µM) was 81.1% and the viability, T/C (second compound 0.1 µM, first compound 0.00316 µM) was 74.3%. The viability, T/C (second compound 0.1 µM, first compound 0.01 µM) was 67%, the viability, T/C [7] was 79.3% and the viability, T/C [8] was 72.1%. For the same compound, the viability, T/C (second compound 0.316 µM, first compound 0.000316 µM) was 59%, the viability, T/C (second compound 0.316 µM, first compound 0.001 µM) was 68.7% and the viability, T/C (second compound 0.316 µM, first compound 0.00316 µM) was 65.7%. The viability, T/C (second compound 0.316 µM, first compound 0.01 µM) was 58.2%, the viability, T/C [9] was 70% and the viability, T/C [10] was 56.1%. The viability, T/C (second compound 1 µM, first compound 0.000316 µM) was 62%, the viability, T/C (second compound 1 µM, first compound 0.001 µM) was 48.5% and the viability, T/C (second compound 1 µM, first compound 0.00316 µM) was 51.6%. For the same compound, the viability, T/C (second compound 1 µM, first compound 0.01 µM) was 57.7%, the viability, T/C [11] was 57.8% and the viability, T/C [12] was 38.8%.
With CNC(=O)c1ccc(N2C(=S)N(c3ccc(C#N)c(C(F)(F)F)c3)C(=O)C2(C)C)cc1F + COc1c(OCCCN2CCOCC2)ccc2c3n(c(=NC(=O)c4cnc(N)nc4)nc12)CCN3 the pIC50 (second compound 0.00316 µM) was < 5.00, the pIC50 (second compound 0.01 µM) was < 5.00 and the pIC50 (second compound 0.0316 µM) was < 5.00. For the same compound, the pIC50 (second compound 0.1 µM) was < 5.00, the pIC50 (second compound 0.316 µM) was < 5.00 and the pIC50 (second compound 1 µM) was < 5.00. The viability, T/C [1] was 108%, the viability, T/C [2] was 102% and the viability, T/C (second compound 0.00316 µM, first compound 0.316 µM) was 88.7%. For the same compound, the viability, T/C (second compound 0.00316 µM, first compound 1 µM) was 97.1%, the viability, T/C (second compound 0.00316 µM, first compound 3.16 µM) was 108% and the viability, T/C (second compound 0.00316 µM, first compound 10 µM) was 101%. It also gave a viability, T/C [3] of 98.6%, a viability, T/C [4] of 107% and a viability, T/C (second compound 0.01 µM, first compound 0.316 µM) of 80.1%. For the same compound, the viability, T/C (second compound 0.01 µM, first compound 1 µM) was 77.8%, the viability, T/C (second compound 0.01 µM, first compound 3.16 µM) was 100% and the viability, T/C (second compound 0.01 µM, first compound 10 µM) was 98.8%. It also gave a viability, T/C [5] of 96.4%, a viability, T/C [6] of 96.9% and a viability, T/C (second compound 0.0316 µM, first compound 0.316 µM) of 84.4%. It also gave a viability, T/C (second compound 0.0316 µM, first compound 1 µM) of 81.5%, a viability, T/C (second compound 0.0316 µM, first compound 3.16 µM) of 95.7% and a viability, T/C (second compound 0.0316 µM, first compound 10 µM) of 68.1%. It also gave a viability, T/C [7] of 67.1%, a viability, T/C [8] of 83.2% and a viability, T/C (second compound 0.1 µM, first compound 0.316 µM) of 72.6%. For the same compound, the viability, T/C (second compound 0.1 µM, first compound 1 µM) was 77%, the viability, T/C (second compound 0.1 µM, first compound 3.16 µM) was 78.7% and the viability, T/C (second compound 0.1 µM, first compound 10 µM) was 70.1%. It also gave a viability, T/C [9] of 67.4%, a viability, T/C [10] of 65.6% and a viability, T/C (second compound 0.316 µM, first compound 0.316 µM) of 73.5%. For the same compound, the viability, T/C (second compound 0.316 µM, first compound 1 µM) was 58.5%, the viability, T/C (second compound 0.316 µM, first compound 3.16 µM) was 79.1% and the viability, T/C (second compound 0.316 µM, first compound 10 µM) was 39.8%. It also gave a viability, T/C [11] of 43.6%, a viability, T/C [12] of 58.4% and a viability, T/C (second compound 1 µM, first compound 0.316 µM) of 54.2%. It also gave a viability, T/C (second compound 1 µM, first compound 1 µM) of 50.1%, a viability, T/C (second compound 1 µM, first compound 3.16 µM) of 57.2% and a viability, T/C (second compound 1 µM, first compound 10 µM) of 65.5%.
Work on Cn1cnc2c(F)c(Nc3ccc(Br)cc3Cl)c(C(=O)NOCCO)cc21 + COc1c(OCCCN2CCOCC2)ccc2c3n(c(=NC(=O)c4cnc(N)nc4)nc12)CCN3 yielded a pIC50 (second compound 0.00316 µM) of 6.18, a pIC50 (second compound 0.01 µM) of 6.00 and a pIC50 (second compound 0.0316 µM) of 6.45. For the same compound, the pIC50 (second compound 0.1 µM) was 6.52, the pIC50 (second compound 0.316 µM) was 6.99 and the pIC50 (second compound 1 µM) was > 8.02. For the same compound, the viability, T/C (second compound 0.00316 µM, first compound 0.00949 µM) was 98.5%, the viability, T/C (second compound 0.00316 µM, first compound 0.03 µM) was 77.5% and the viability, T/C (second compound 0.00316 µM, first compound 0.0949 µM) was 76.3%. It also gave a viability, T/C (second compound 0.00316 µM, first compound 0.3 µM) of 68.8%, a viability, T/C (second compound 0.00316 µM, first compound 0.949 µM) of 41.5% and a viability, T/C (second compound 0.00316 µM, first compound 3 µM) of 21.3%. The viability, T/C (second compound 0.01 µM, first compound 0.00949 µM) was 94.7%, the viability, T/C (second compound 0.01 µM, first compound 0.03 µM) was 77.9% and the viability, T/C (second compound 0.01 µM, first compound 0.0949 µM) was 74.6%. It also gave a viability, T/C (second compound 0.01 µM, first compound 0.3 µM) of 65.5%, a viability, T/C (second compound 0.01 µM, first compound 0.949 µM) of 58.9% and a viability, T/C (second compound 0.01 µM, first compound 3 µM) of 18.2%. For the same compound, the viability, T/C (second compound 0.0316 µM, first compound 0.00949 µM) was 91.6%, the viability, T/C (second compound 0.0316 µM, first compound 0.03 µM) was 86.1% and the viability, T/C (second compound 0.0316 µM, first compound 0.0949 µM) was 66%. For the same compound, the viability, T/C (second compound 0.0316 µM, first compound 0.3 µM) was 50.2%, the viability, T/C (second compound 0.0316 µM, first compound 0.949 µM) was 37.7% and the viability, T/C (second compound 0.0316 µM, first compound 3 µM) was 14.7%. For the same compound, the viability, T/C (second compound 0.1 µM, first compound 0.00949 µM) was 87.4%, the viability, T/C (second compound 0.1 µM, first compound 0.03 µM) was 71.4% and the viability, T/C (second compound 0.1 µM, first compound 0.0949 µM) was 71.8%. The viability, T/C (second compound 0.1 µM, first compound 0.3 µM) was 49.9%, the viability, T/C (second compound 0.1 µM, first compound 0.949 µM) was 26.7% and the viability, T/C (second compound 0.1 µM, first compound 3 µM) was 5.26%. It also gave a viability, T/C (second compound 0.316 µM, first compound 0.00949 µM) of 56.4%, a viability, T/C (second compound 0.316 µM, first compound 0.03 µM) of 49.9% and a viability, T/C (second compound 0.316 µM, first compound 0.0949 µM) of 47.8%. The viability, T/C (second compound 0.316 µM, first compound 0.3 µM) was 39.2%, the viability, T/C (second compound 0.316 µM, first compound 0.949 µM) was 11.4% and the viability, T/C (second compound 0.316 µM, first compound 3 µM) was 6.72%. The viability, T/C (second compound 1 µM, first compound 0.00949 µM) was 45.9%, the viability, T/C (second compound 1 µM, first compound 0.03 µM) was 37.8% and the viability, T/C (second compound 1 µM, first compound 0.0949 µM) was 29.8%. For the same compound, the viability, T/C (second compound 1 µM, first compound 0.3 µM) was 22.6%, the viability, T/C (second compound 1 µM, first compound 0.949 µM) was 9.08% and the viability, T/C (second compound 1 µM, first compound 3 µM) was 4.95%.

From PubChem BioAssay AID1963961 (Molecular Pharmacology Branch, DTP, NCI, 2024)
